The values below come from patent US9040563B2, “Dual inhibitors of farnesyltransferase and geranylgeranyltransferase I” (H. Lee Moffitt Cancer Center and Research Institute, Inc., priority 2010, dated 2015).

Values joined by “and” are separate entries in the source; they are usually repeats but may differ in a detail not shown here. Equal entries are not always repeated.

In one assay the test system is A549. The assay is described as follows: MTT proliferation/viability assay. Format: cell-based, human. The note with it: A549, lung. Here is the method: (§1) To determine if FGTI-2734 is more efficacious than FT or GGT-1 inhibitors, 10 human cancer pancreatic cell lines, 2 human breast cancer cell lines, 2 human lung cancer cell lines and one human prostate cancer cell line were treated with these inhibitors and determined their effects on the proliferation of these cells by MTT assay.

A further assay deals with ASPC-1. The assay is described as follows: MTT proliferation/viability assay. Format: cell-based, human. On the procedure: as §1
For another assay, the system named is BxPC3. The assay is described as follows: MTT proliferation/viability assay. Format: cell-based, human. On the procedure: as §1
The next assay concerns Capan-2. The assay is described as follows: MTT proliferation/viability assay. Type of assay: cell-based, human. Here is the method:
as §1

Another assay deals with HPDE-C7-Kras. The assay is described as follows: MTT proliferation/viability assay. Format: cell-based, human. The note with it: pancreas. Here is the method:
as §1

The next assay has as its system HPDE-C7. Put plainly: MTT proliferation/viability assay. As to conditions: HPDE-C7, pancreas. Type of assay: cell-based, human. On the procedure: as §1
The next assay concerns HPNE-K-ras. The assay is described as follows: MTT proliferation/viability assay. Type of assay: cell-based, human. The note with it: pancreas. On the procedure: as §1
The subject of a further assay is HPNE. The assay is described as follows: MTT proliferation/viability assay. Format: cell-based, human. The note with it: pancreas. Here is the method:
as §1

The subject of the next assay is MCF-7. The assay is described as follows: MTT proliferation/viability assay. Type of assay: cell-based, human. On the procedure: as §1
For a further assay, the system named is MiaPaca. The assay is described as follows: MTT proliferation/viability assay. Format: cell-based, human. On the procedure: as §1
Another assay deals with Panc-1. Put plainly: MTT proliferation/viability assay. Type of assay: cell-based, human. As to conditions: Panc-1, pancreas. On the procedure: as §1
In a further assay the test system is SW1990. Put plainly: MTT proliferation/viability assay. Type of assay: cell-based, human. Here is the method: as §1
The subject of assay [1] is Rap-1A geranylgeranylation. Put plainly: Western blot of Rap-1A geranylgeranylation/processing (antibody to un-geranylgeranylated Rap-1A) in treated cells. Format: cell-based. On the procedure: The ability of FGTI-2734 to inhibit HDJ-2 farnesylation and Rap-1A geranylgeranylation in human cancer cells was determined next. To this end, the MiaPaca pancreatic cancer cell line and 2 breast cancer cell lines (MDA-MB-468 and MDA-MB-231) were treated with various concentration of the dual inhibitor FGTI-2734, the GGT-1 inhibitor GGTI-2418 or the FT inhibitor FTI-2153 and processed for Western blotting.
Testing has shown that the dual farnesyltransferase and geranygeranyltransferase-I inhibitors are effective on pancreatic tumors (90% of all cases), colonic tumors (30% of all cases), lung tumors (30% of all cases), and breast tumors (10% of all cases). NIH-3T3 cells that overexpress oncogenic mutant K-Ras, seen in FIG. 14, and MDA-MB-231 breast cancer cells with a naturally occurring K-Ras mutation, seen in FIG. 15, were treated with indicated concentrations of FGTI-2734, GGTI-2417 or FTI-2153. FGTI-2734 but not FTI-2153 or GGTI-2417 inhibited K-Ras prenylation. As expected, GGTI-2417 inhibited the processing of Rap1 but not HDJ-2 whereas FTI-2153 inhibited the processing of HDJ-2 but not Rap1.
Mammalian target of rapamycin (mTOR) is a serine/threonine phosphatidylinositol 3-kinase-related kinase responsible for cell growth, proliferation, cell survival, protein synthesis, and transcription. Alteration of the mTOR pathway, either through activation of oncogenes or inactivation of tumor suppressors, disrupts a signaling equilibrium and causes malignant transformation. Studies have shown that phosphorylated S6 (pS6) is related to mTOR pathway alterations, and is useful in determining PI3K-based cancer therapies (Aziz, et al. Phosphatidylinositol-3-Kinase as a Therapeutic Target in Melanoma. Clin Cancer Res. 2009, 15; 3029-3036). Two breast adenocarcinoma and a pancreatic carcinoma cell line were treated with indicated concentrations of FGTI-2734, GGTI-2417 or FTI-2153. Protein extracts were run on a Western Blot using antibody against pS6 (ser240/244) (Cell Signaling Technology, Inc., Danvers, Mass.). […]

The test system of another assay is DU-145. The assay is described as follows: MTT proliferation/viability assay. Type of assay: cell-based, human. Here is the method:
as §1

The subject of the next assay is NCI-H460. The assay is described as follows: MTT proliferation/viability assay. Type of assay: cell-based. The note with it: Homo sapiens, NCI-H460, lung. On the procedure: as §1

A word on the IC50: it is the concentration at which inhibition is half-maximal. A low value points to greater potency. As for `CSCC[C@H](NC(=O)c1ccc(CNCc2cnc[nH]2)cc1-c1ccccc1C)C(=O)O` [FTI-2148], the IC50 is over 100 µM with A549; over 100 µM with ASPC-1 (ASPC-1, pancreas); over 100 µM in the assay on BxPC3 (BxPC3, pancreas); over 100 µM with Capan-2 (Capan-2, pancreas); over 100 µM in the assay on HPDE-C7-Kras; over 100 µM in the assay on HPDE-C7. Besides, the IC50 is over 100 µM with HPNE-K-ras; over 100 µM in the assay with HPNE; > 100 µM and 50 µM with MCF-7 (MCF-7, breast); 1.2 µM in the assay with MiaPaca (pancreas); over 100 µM with Panc-1; over 100 µM in the assay on SW1990 (SW1990, pancreas).

Turning to `COC(=O)[C@H](CC(C)C)NC(=O)N1CCN(Cc2nc[nH]c2C)C(=O)[C@@H]1Cc1ccccc1` [GGTI-2417, reference compound], the “inhibition of Rap1 processing” value in assay [1] (NIH-3T3 overexpressing mutant K-Ras and MDA-MB-231, FIGS. 14, 15) is “inhibited”.

For `Cc1nc[nH]c1CN1CCN(C(=O)N[C@@H](CC(C)C)C(=O)O)[C@@H](Cc2ccccc2)C1=O` [GGTI-2418], the concentration for half-maximal inhibition (IC50) with A549 (Homo sapiens) is over 100 µM; in the assay with ASPC-1 (Homo sapiens, ASPC1, ASPC-1, pancreas), over 100 µM; in the assay with BxPC3 (Homo sapiens, BXPC-3, BxPC3, pancreas), over 100 µM; in the assay with Capan-2 (Homo sapiens, Capan-2, Capan-2, pancreas), over 100 µM; in the assay on DU-145 (DU-145, prostate), over 50 µM; in the assay with DU-145 (Homo sapiens, DU-145, DU-145, prostate) it was over 100 µM. In addition, the IC50 with HPDE-C7-Kras (Homo sapiens) is over 100 µM; in the assay with HPDE-C7 (Homo sapiens), over 100 µM; in the assay on HPNE-K-ras (Homo sapiens), over 100 µM; in the assay on HPNE (Homo sapiens) it was over 100 µM; with MCF-7 (Homo sapiens, MCF7, MCF-7, breast) it was over 100 µM; with MiaPaca (Homo sapiens, MIA PaCa-2, pancreas), over 100 µM. In addition, the IC50 in the assay on Panc-1 (Homo sapiens) is over 100 µM; in the assay with SW1990 (Homo sapiens, SW1990, SW1990, pancreas) it was over 100 µM; in the assay with NCI-H460, over 100 µM. The “inhibition of Rap-1A geranylgeranylation” value in assay [1] (MiaPaca, MDA-MB-468 and MDA-MB-231 human cancer cells, FIG. 13) is listed as “inhibited selectively”.
